For one assay, the target named is T1, IKKβ (Homo sapiens, UniProt O14920).
T1 sequence (O14920 1-756): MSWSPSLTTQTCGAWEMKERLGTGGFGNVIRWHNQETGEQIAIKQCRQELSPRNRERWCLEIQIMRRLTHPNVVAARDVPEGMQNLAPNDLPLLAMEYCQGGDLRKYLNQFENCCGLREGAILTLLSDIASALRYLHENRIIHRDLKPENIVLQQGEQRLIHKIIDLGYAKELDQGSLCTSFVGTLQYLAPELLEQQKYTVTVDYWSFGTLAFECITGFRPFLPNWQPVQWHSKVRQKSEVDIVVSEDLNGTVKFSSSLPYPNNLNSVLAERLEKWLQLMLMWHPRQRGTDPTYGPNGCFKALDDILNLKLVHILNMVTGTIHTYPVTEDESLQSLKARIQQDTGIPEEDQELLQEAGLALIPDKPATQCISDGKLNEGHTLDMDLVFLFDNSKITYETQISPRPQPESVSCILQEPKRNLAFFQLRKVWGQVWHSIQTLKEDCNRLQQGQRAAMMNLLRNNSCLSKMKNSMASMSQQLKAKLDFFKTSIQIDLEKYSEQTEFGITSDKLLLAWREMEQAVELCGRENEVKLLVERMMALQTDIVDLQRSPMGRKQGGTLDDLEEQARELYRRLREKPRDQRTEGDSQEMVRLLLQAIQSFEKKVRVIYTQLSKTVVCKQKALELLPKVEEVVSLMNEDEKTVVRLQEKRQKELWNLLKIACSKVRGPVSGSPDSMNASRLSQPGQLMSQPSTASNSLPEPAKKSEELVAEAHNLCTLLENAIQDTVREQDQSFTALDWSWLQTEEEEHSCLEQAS
As to the kind of experiment: IKKβ kinase assay (Z′-LYTE Assay Kit-Ser/Thr 5 Peptide). It is filed as biochemical. On the procedure: Alternately, the IKKβ kinase assay is performed in vitro using a Z′-LYTE™ Assay Kit-Ser/Thr 5 Peptide (Invitrogen, Cat.No. PV3178). All reactions (20 μL) are started by adding 0.8 μL of the test compound in a DMSO solution, 10 μL of Kinase/Peptide Mixture or Phospho-Peptide solution (Invitrogen, Cat.No. PV3219, diluted with 1.33× Kinase Buffer), 5 μL of 1.33× Kinase Buffer (Invitrogen, Cat.No. PV3189, 5× diluted with distilled water) or ATP Solution (5 μM), and 4.2 μL of distilled water. The 384-well assay plate (Corning, Cat.No. 3575) is mixed and incubated at room temperature for 1 hour. 10 μL of the Development Solution [Development Reagent B (Invitrogen, Cat.No. PV3296)/Development Buffer (Invitrogen, Cat.No. PV3127)=1:128] is then added to each well, mixed and incubated at room temperature for another 1 h. The kinase reaction is then stopped by adding 10 μL of the Stop Reagent (Invitrogen, Cat.No. PV3094), and the plate is read with a Wallac 1420 VICTOR^3 Multilabel Counter (PERKIN ELMER™) at 445 nm and 520 nm fluorescence. The assay has an MSR of 2.14. The compound is initially tested at 8 concentrations (10 μM) to 0.003 μM) using a 1:3 serial dilution scheme.

The subject of assay [1] is collagen induced arthritis. As to the kind of experiment: Rat collagen II induced arthritis (CIA) model. The assay is classed as in vivo, Wistar Rats. Particulars: 30 mg/kg oral bid, day 1 to day 21. On the procedure:
To confirm the results obtained in mouse CIA model, the compound is also tested in a CIA model in rat essentially as described in a method reported in the literature (Rosloniec E F, Cremer M, Kang A, Myers L K. Current Protocols in Immunology. 1996, 15.5.1-15.5.24). Briefly, Wistar Rats are immunized intradermally with 200 μg bovine collagen II emulsified in Freund's […] on day 0 and with 100 μg collagen II emulsified in IFA (incomplete Freund's adjuvant) on day 7. The hind paw volume is measured before and after the immunization. The disease development of four paws is quantified with arthritis scores. Rats in normal and model groups are treated with vehicle or drug (treated group). Rats in treated group are orally administered with the testing compound at doses of 3, 10, 30 mg/kg (bid), from day 1 to day 21 after the first immunization. In the LEF group, as a positive control, rats are orally administered with LEF at a dose of 10 mg/kg, q.d.

Assay [2] relates to LPS-induced joint TNFα production. The assay is described as follows: LPS-induced acute joint inflammation in rat. The assay is classed as in vivo, Wistar rats. Conditions: oral 1 h before intra-articular LPS 10 μg. The protocol: To further investigate the effects of IKKβ inhibitor on mechanism-relevant joint inflammation, the compound is screened for its ability to inhibit the LPS-induced joint acute inflammation in rat essentially as describe by a method reported in the literature (Matsukawa A, Yoshimura T, Miyamoto K, Ohkawara S, Yoshinaga M. Lab Invest. 1997, 76(5):629-38). Briefly, Wistar rats (female, body weight 150 g-170 g) are used in the experiments Animals (8/group) are given 1 to 100 mg/kg of the test compound [suspension in 35% Solutol (Macrogol 15 Hydroxystearate) & 60% PEG400 & 5% PG (propylene glycol)] or vehicle by oral gavage at 1 h prior to intra-articular (i.a.) administration of 10 μg of LPS in 10 μL of saline on left hind knee of each rat, using a 26-gauge needle. The right hind knee of each rat is injected with 10 μL of saline as a control. Two hour after LPS injection, each […] of the rats is lavaged with 100 μL of saline. The synovial fluids are collected and stored at -80° C. The […] is diluted 2 fold with the dilution buffer and 50 μL of the diluted sample is used for the measurement of TNFα levels using R&D System ELISA Kit based on the general Kit protocol. The plate is read on a SPECTRAMAX® M2e Plus Plate Reader and TNFα levels are analyzed using a standard curve. The drug levels are also measured by liquid chromatography-tandem mass spectrometry (LC-MS-MS).

Broadly, the IC50 is the concentration at which inhibition is half-maximal. The low end stands for greater potency, the high end for weaker potency. As a reminder, the ED50 is the dose that gives a 50% effect, or the effect in half of the subjects. High values mean a need for a large dose, low ones an effect at a small dose. At IKKβ, `Cl.O=C(NC1CC1)c1cccc2[nH]c(-c3nc(N[C@@H]4CCC[C@H]4O)ncc3Cl)cc12` [Example 2, 2-{5-Chloro-2-[(1R,2R)-2-hydroxycyclopentylamino]pyrimidin-4-yl}-N-cyclopropyl-1H-indole-4-carboxamide hydrochloride] registered an IC50 of 58.1 nM. Further, in assay [1], the “arthritis scores and hind paws volume” value is on record as “significantly attenuates collagen induced arthritis”. Besides, the ED50 in assay [2] was 23.4 mg/kg.

Source of the values: patent publication US8501166B2, “Pyrimidinyl indole compounds” (Hutchison Medipharma Limited, priority 2010, dated 2013).
